The values below come from patent US20190133997A1, “ARTEMISININ ANALOG, AND USE, METHOD, AND COMPOSITION FOR PROMOTING LIPID CATABOLISM AND IMPROVING SUGAR METABOLISM” (FUDAN UNIVERSITY, priority 2016, published 2019).

Experiment [1] deals with 3T3-L1 white preadipocytes. Kind of experiment: Artemether-induced browning of 3T3-L1 white preadipocytes during differentiation (morphology, UCP1 mRNA by Real time qPCR). Format: cell-based. The following applies: vs control, concentration-dependent tendency. The procedure: 2.5×10^5 3T3-L1 white preadipocytes were seeded in a 3.5 cm cell culture dish, and cultured for 3 days in a maintenance medium. Cells proliferated to contact inhibition. 48 hours after the contact inhibition was reached, the medium was changed to induced differentiation medium, and the induced differentiation mixture including 0.5 mMol/L 3-isobutyl-1-methylxanthine (Mix), 1 μMol/L dexamethasone (Dex) and 1 μg/ml insulin (Insulin) was added. The induced differentiation mixture is referred to as MDI for short. The day of adding MDI was defined as Day 0 of differentiation. After 2 days of culture in the above medium, fresh induced differentiation medium was replaced, and 1 μg/ml insulin was added to the medium. After another 2 days of culture, the fresh induced differentiation medium was replaced, and the medium was changed every other day until the culture was differentiated to Day 8. […]
3T3-L1 differentiated to mature was induced in a 3.5 cm culture dish, with the method of differentiation referring to Method 1.4.1. […] The precipitate was dissolved in 60 μl DEPC water, and quantified by Colibri Tepertec and stored at −80° C. […]
The relative amount of mRNA was calculated according to the AACT method, with 18S being used as an internal reference. […]

The next experiment relates to BMP4-directed C3H10T1/2. Kind of experiment: Artemether on BMP4-directed C3H10T1/2 differentiation (morphology, Western blot, MitoTracker Green). Format: cell-based. The procedure:
7.5×10^5 C3H10T1/2 were seeded in a 3.5 cm cell culture dish, and cultured for 3-5 days in a maintenance medium. On the next day of seeding, BMP4 (at a final concentration of 20 ng/ml) was added to the medium to allow the cells to proliferate to contact inhibition. Two days after the contact inhibition was reached, the medium was changed to induced differentiation medium, and the induced mixture (0.5 mMol/L Mix, 1 μMol/L Dex, 1 ng/ml insulin, 100 nMol/L indometacin, 1 nM T3) was added at the same time. This day was defined as Day 0 of differentiation. After 2 days of induction, fresh induced differentiation medium was replaced, and 1 ng/ml insulin and 1 nMol/L T3 were added. After another 2 days of culture, the fresh medium was replaced every other day until the culture was differentiated to Day 8 at which time the cells were mature. At this time, the differentiated and mature cells were white adipocytes.
7.5×10^5 C3H10T1/2 were seeded in a 3.5 cm cell culture dish, and cultured for 3-5 days in a maintenance medium. On the next day of seeding, BMP7 (at a final concentration of 100 ng/ml) was added to the medium to allow the cells to proliferate to contact inhibition. Two days after the contact inhibition was reached, the medium was changed to induced differentiation medium, and the induced mixture (0.5 mM Mix, 1 μM Dex, 1 ng/ml insulin, 100 nM indometacin, 1 nM T3) was added at the same time. This day was defined as Day 0 of differentiation. After 2 days of induction, fresh induced differentiation medium was replaced, and 1 ng/ml insulin and 1 nM T3 were added. After another 2 days of culture, the fresh medium was replaced every other day until the culture was differentiated to Day 8 at which time the cells were mature. At this time, the cells differentiated to mature were brown adipocytes.
On Day 0 of differentiation, that is, when the induced differentiation mixture was added, the compound was added to the medium at a storage concentration of 10 mMol/L, and the final concentrations were […], respectively. When the fresh medium was replaced, the corresponding compound was supplemented, and the compound was always with the cells until the cells differentiated to mature.
C3H10T1/2 differentiated to mature was induced in a 3.5 cm culture dish, with the method of differentiation referring to Method 2.4.1. 300 μl Trizol was added to fully lyse the cells, and the lysate was transferred into a 1.5 ml centrifuge tube and heated at 100° C. for 10 min. The lysate was centrifuged at 13000 g for 10 min at 4° C., the lipid in the upper layer was removed, and the clarified lysate in the middle layer was transferred into a new centrifuge tube. 2.5 μl lysate was taken and quantified by BCA method, and 200 μl lysate was mixed with 50 μl loading buffer, heated at 100° C. for 10 min, and stored at −20° C. until use.
[…] C3HOT1/2 protein was loaded onto 10% polyacrylamide gel, and electrophoresis was carried out, with electrophoresis being carried out on base gel at 80V, and on separating gel at 100V, until the target band was separated. The protein was transferred to a PVDF membrane in an ice bath at 100 V for 100 min. After the transfer was completed, it was blocked for 1 hr in 5% skim milk prepared with TBST (TBS buffer+0.5% Tween), and incubated with specific antibodies overnight at 4° C. The next day, the PVDF membrane was washed three times with TBST at room temperature for 10 min, incubated with the corresponding secondary antibody at room temperature for 1 hr, then washed three times with TBST at the same condition as that of primary antibody, incubated with chemiluminescent reagent at room temperature for 1 min, detected with ImageQuant LAS4000 Mini Automatic chemiluminescence apparatus and exposed, and the results were recorded.
C3H10T1/2 differentiated to mature was induced in a 3.5 cm culture dish. The medium was removed and 1 ml PBS was added. […]

[2] abbreviates: artemether 5, 10, 15 Mol/L, Western blot, β-actin reference, concentration-dependent tendency.

As for `CO[C@H]1O[C@@H]2O[C@@]3(C)CC[C@H]4[C@H](C)CC[C@@H]([C@H]1C)[C@@]24OO3` [artemether], the “mRNA level of UCP1” value in experiment [1] (3T3-L1, different concentrations of ART, Real time qPCR, 18S reference) is on record as “significantly up-regulated”. In experiment [1] (artemether 5, 10 or from Day 0 of differentiation to maturity), the “cell morphology of 3T3-L1” value is given as “exhibited typical brown adipocyte-like characteristics”. Also, in the experiment on BMP4-directed C3H10T1/2 (setting [2]), the “protein level of PGC1α” value is reported as “increased”, the “protein level of PRDM16” value was “increased” and the “protein level of UCP1” value is reported as “increased”. For the same compound, in the experiment on BMP4-directed C3H10T1/2 (artemether 5, 10, 15 μMol/L, Western blot, β-actin reference, concentration-dependent tendency), the “protein level of CytoC” value was “increased”. In addition, the “mitochondrial biosynthesis (MitoTracker Green)” value with BMP4-directed C3H10T1/2 (artemether 15 μMol/L) was “significantly enhanced”. The “cell morphology of BMP4-directed C3H10T1/2” value with BMP4-directed C3H10T1/2 (artemether 15 μMol/L during differentiation, similar to BMP7-directed cell morphology) was “exhibited brown fat-like characteristics”.
